Legend:
cortisone conversion = test: Acute in vivo cortisone conversion assay; conditions: Mus musculus; male C57BL/6 mice, oral dose 10 mg/kg, cortisone challenge 16 hours post dose, serum cortisol; read-out: % Inhibition after 16 hours (dose of 10 (mg/kg))
Experimental: Acute In Vivo Cortisone Conversion Assay
In general, compounds are dosed orally into mice, the mice are challenged with a subcutaneous injection of cortisone at a set timepoint after compound injection, and the blood of each animal is collected some time later. Separated serum is then isolated and analyzed for levels of cortisone and cortisol by LC-MS/MS, followed by calculation of mean cortisol and percent inhibition of each dosing group. Specifically, male C57BL/6 mice are obtained from Harlan Sprague Dawley at average weight of 25 grams. Exact weights are taken upon arrival and the mice randomized into groups of similar weights. Compounds are prepared in 1% w-w HEC, 0.25% w-w polysorbate 80, 0.05% w-w Dow Corning antifoam #1510-US at various doses based on assumed average weight of 25 grams. Compounds are dosed orally, 200 μl per animal, followed by a subcutaneous dose, 200 μl per animal, of 30 mg/kg cortisone at 1 to 24 hours post compound dose. At 10 minutes post cortisone challenge, each animal is euthanized for 1 minute in a CO2 chamber, followed by blood collection via cardiac puncture into serum separator tubes. Once fully clotted, tubes are spun at 2500×g, 4° C. for 15 minutes, the serum transferred to wells of 96-well plates (Corning Inc, Costar #4410, cluster tubes, 1.2 ml, polypropylene), and the plates are frozen at −20° C. until analysis by LC-MS/MS. For analysis, serum samples are thawed and the proteins are precipitated by the addition of acetonitrile containing d4-cortisol internal standard. Samples are vortex mixed and centrifuged. The supernatant is removed and dried under a stream of warm nitrogen. Extracts are reconstituted in methanol/water (1:1) and injected onto the LC-MS/MS system. The levels of cortisone and cortisol are assayed by selective reaction monitoring mode following positive ACPI ionization on a triple quadrupole mass spectrophotometer.

11-β-HSD1 = biological target: T1, 11-β-HSD1 (Homo sapiens, UniProt P28845); test: Human aortic smooth muscle cell assay; type: cell-based; conditions: primary human AoSMC, hTNFα-induced 11-β-HSD1, cortisol immunoassay
T1 construct: assay medium containing 12 ng/mL hTNFα to induce expression of 11-β-HSD1; endogenous in cells; host or cells: primary human aortic smooth muscle cells (AoSMC), induced with hTNFα
T1 sequence (P28845 whole entry): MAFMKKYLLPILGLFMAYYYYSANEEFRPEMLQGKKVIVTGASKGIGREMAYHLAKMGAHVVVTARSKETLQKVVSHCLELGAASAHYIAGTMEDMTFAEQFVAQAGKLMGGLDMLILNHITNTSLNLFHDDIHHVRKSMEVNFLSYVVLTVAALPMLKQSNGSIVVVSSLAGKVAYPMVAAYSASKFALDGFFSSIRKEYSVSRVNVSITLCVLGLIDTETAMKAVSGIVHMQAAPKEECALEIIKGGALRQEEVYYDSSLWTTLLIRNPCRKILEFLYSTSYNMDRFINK
Experimental: Human Aortic Smooth Muscle Cell Assay
Primary human aortic smooth muscle cells (AoSMC) are cultured in 5% FBS growth medium to a passage number of 6, then pelleted by centrifugation and resuspended at a density of 9×10^4 cells/mL in 0.5% FBS assay medium containing 12 ng/mL hTNFα to induce expression of 11-β-HSD1. Cells are seeded into 96-well tissue culture assay plates at 100 μL/well (9×10^3 cells/well) and incubated for 48 hours at 37° C., 5% CO2. Following induction, cells are incubated for 4 hours at 37° C., 5% CO2 in assay medium containing test compounds then treated with 10 μL/well of 10 μM cortisone solubilized in assay medium, and incubated for 16 hours at 37° C., 5% CO2. Medium from each well is transferred to a plate for subsequent analysis of cortisol using a competitive fluorescence resonance time resolved immunoassay. In solution, an allophycocyanin (APC)-cortisol conjugate and free cortisol analyte compete for binding to a mouse anti-cortisol antibody/Europium (Eu)-anti mouse IgG complex. Higher levels of free cortisol result in diminishing energy transfer from the Europium-IgG to the APC-cortisol complex resulting in less APC fluorescence. Fluorescent intensities for Europium and APC are measured using a LJL Analyst AD. Europium and APC excitation is measured using 360 nm excitation and 615 nm and 650 nm emission filters respectively. Time resolved parameters for Europuium were 1000 μs integration time with a 200 μs delay. APC parameters are set at 150 μs integration time with a 50 μs delay. Fluorescent intensities measured for APC are modified by dividing by the Eu fluorescence (APC/Eu). This ratio is then used to determine the unknown cortisol concentration by interpolation using a cortisol standard curve fitted with a 4-parameter logistic equation. These concentrations are then used to determine compound activity by plotting concentration versus % inhibition, fitting with a 4-parameter curve and reporting the IC50.

11-βHSD2 enzyme = biological target: T2, 11-βHSD2 enzyme (Homo sapiens, UniProt P80365); test: Selectivity against 11-βHSD2 in an enzyme assay similar to the 11β-HSD type 1 enzyme assay; type: biochemical; conditions: 11-βHSD1 versus 11-βHSD2 enzyme
T2 sequence (P80365 1-405): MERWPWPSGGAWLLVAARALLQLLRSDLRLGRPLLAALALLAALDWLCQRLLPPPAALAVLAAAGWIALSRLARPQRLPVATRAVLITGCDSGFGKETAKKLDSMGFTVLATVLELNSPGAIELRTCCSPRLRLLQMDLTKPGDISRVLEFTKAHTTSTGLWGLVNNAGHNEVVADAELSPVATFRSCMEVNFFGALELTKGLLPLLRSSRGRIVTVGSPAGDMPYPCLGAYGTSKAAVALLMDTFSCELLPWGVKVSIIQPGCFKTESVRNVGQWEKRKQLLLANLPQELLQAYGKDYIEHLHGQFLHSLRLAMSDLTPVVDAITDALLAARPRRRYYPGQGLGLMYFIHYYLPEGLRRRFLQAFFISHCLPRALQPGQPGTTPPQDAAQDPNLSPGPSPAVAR
Experimental: 11β-HSD Type 1 Enzyme Assay
Human 11β-HSD type 1 activity is measured by assaying NADPH production by fluorescence assay. Solid compounds are dissolved in DMSO to a concentration of 10 mM. Twenty microliters of each are then transferred to a column of a 96-well polypropylene Nunc plate where they are further diluted 50-fold followed by subsequent two-fold titration, ten times across the plate with additional DMSO using a Tecan Genesis 200 automated system. Plates are then transferred to a Tecan Freedom 200 system with an attached Tecan Temo 96-well head and an Ultra 384 plate reader. Reagents are supplied in 96-well polypropylene Nunc plates and are dispensed individually into black 96-well Molecular Devices High Efficiency assay plates (40 μL/well capacity) in the following fashion: 9 μL/well of substrate (2.22 mM NADP, 55.5 μM Cortisol, 10 mM Tris, 0.25% Prionex, 0.1% Triton X100), 3 μL/well of water to compound wells or 3 μL to control and standard wells, 6 μL/well recombinant human 11β-HSD type 1 enzyme, 2 μL/well of compound dilutions. […] Plates are then shaken once more for 15 seconds then placed into an Ultra 384 microplate reader (355EX/460EM) for detection of NADPH fluorescence. […]

Row | IC50 (11-β-HSD1) [nM] | fold greater inhibition of 11-βHSD1 enzyme as compared to the inhibition of 11-βHSD2 (11-βHSD2 enzyme) [fold] | SMILES | inhibition at 10 mg/kg (cortisone conversion) [%]
1 | 67 |  | O=C(c1ccc(-c2cc(Cl)c(C[C@@H]3CCN(N4CCOCC4)C3=O)c(Cl)c2)cc1)N1CCC(C(F)(F)F)CC1 [Example 3, (R)-3-[3,5-Dichloro-4′-(4-trifluoromethyl-piperidine-1-carbonyl)-biphenyl-4-ylmethyl]-1-morpholin-4-yl-pyrrolidin-2-one] | 82
2 | 14.3 | 145 | O=C(c1ccc(-c2cc(Cl)c(C[C@@H]3CCN(N4CCC(O)CC4)C3=O)c(Cl)c2)cc1)N1CCC(C(F)(F)F)CC1 [Example 7, (R)-3-[3,5-Dichloro-4′-(4-trifluoromethyl-piperidine-1-carbonyl)-biphenyl-4-ylmethyl]-1-(4-hydroxy-piperidin-1-yl)-pyrrolidin-2-one] | 98
3 | 5.7 |  | O=C1[C@H](Cc2c(Cl)cc(-c3ccc(F)cc3)cc2Cl)CCN1N1CCC(O)CC1 [Example 6, (R)-3-(3,5-Dichloro-4′-fluoro-biphenyl-4-ylmethyl)-1-(4-hydroxy-piperidin-1-yl)-pyrrolidin-2-one Trifluoro Acetate] | 55
4 | 43 |  | O=C(c1ccc(-c2cc(Cl)c(C[C@@H]3CCN(N4CCC(O)CC4)C3=O)c(Cl)c2)cc1)N1CCC(F)(F)CC1 [Example 8, (R)-3-[3,5-Dichloro-4′-(4,4-difluoro-piperidine-1-carbonyl)-biphenyl-4-ylmethyl]-1-(4-hydroxy-piperidin-1-yl)-pyrrolidin-2-one] | 94

— patent publication US8153807B2, “Inhibitors of 11-beta-hydroxysteroid dehydrogenase 1” (Eli Lilly and Company, priority 2006, dated 2012)
